The test deals with L1210 leukemia ip in BDF1 mice, survival T/C. Nature of the test: NCI In Vivo Anticancer Drug Screen. Data for tumor model L1210 Leukemia (intraperitoneal) in B6D2F1 (BDF1) mice. The conditions noted are these: endpoint: mean survival time, higher = longer survival. Put shortly:
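Mice bearing the transplanted tumor received compound or vehicle. Survival of the treated group was divided by that of the vehicle-treated control group to give the ratio.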

Where [1] appears, read: dose: 100.0 mg/kg/injection, schedule: Q01DX009 (ip), vehicle: Klucel (hydroxypropylcellulose) (HPC).
The mark [2] stands for this setting: dose: 100.0 mg/kg/injection, schedule: Q04DX003 (ip), vehicle: Klucel (hydroxypropylcellulose) (HPC).
Setting [3] is: dose: 200.0 mg/kg/injection, schedule: Q01DX009 (ip), vehicle: Klucel (hydroxypropylcellulose) (HPC).
[4] abbreviates: dose: 200.0 mg/kg/injection, schedule: Q04DX003 (ip), vehicle: Klucel (hydroxypropylcellulose) (HPC).
[5] abbreviates: dose: 400.0 mg/kg/injection, schedule: Q01DX009 (ip), vehicle: Klucel (hydroxypropylcellulose) (HPC).
The mark [6] stands for this setting: dose: 400.0 mg/kg/injection, schedule: Q04DX003 (ip), vehicle: Klucel (hydroxypropylcellulose) (HPC).
Setting [7] is: dose: 100.0 mg/kg/injection, schedule: Q01DX009 (ip), vehicle: saline with Tween-80.
The mark [8] stands for this setting: dose: 100.0 mg/kg/injection, schedule: Q04DX003 (ip), vehicle: saline with Tween-80.
Where [9] appears, read: dose: 200.0 mg/kg/injection, schedule: Q04DX003 (ip), vehicle: saline with Tween-80.
The mark [10] stands for this setting: dose: 400.0 mg/kg/injection, schedule: Q04DX003 (ip), vehicle: saline with Tween-80.
Where [11] appears, read: dose: 100.0 mg/kg/injection, schedule: Q01DX001 (ip), vehicle: saline.
Where [12] appears, read: dose: 200.0 mg/kg/injection, schedule: Q01DX001 (ip), vehicle: saline.
Setting [13] is: dose: 400.0 mg/kg/injection, schedule: Q01DX001 (ip), vehicle: saline.
Setting [14] is: dose: 200.0 mg/kg/injection, schedule: Q01DX009 (ip), vehicle: saline with Tween-80.

22 compounds from PubChem BioAssay AID248 (DTP/NCI, 2004) can be followed below.

“And” between values parts separate entries of the source, which are not always exact repeats. Equal entries are not always repeated. Inconclusive results and toxic doses are left out.

For the compound `COC(C)C(O)(C(N)=O)C(C)C` (stereo unspecified), the T/C under setting [1] was 98 % of control; the T/C under setting [2] was 101 % of control; the T/C under setting [3] is 98 % of control; the T/C under setting [4] was 101 % of control; the T/C under setting [5] was 102 % of control; the T/C under setting [6] is 97 % of control.
`Cc1c(C(C)(C(=O)O)c2c(C)n(C)c3ccccc23)c2ccccc2n1C`: the T/C is 96 % of control (dose: 50.0 mg/kg/injection, schedule: Q01DX001 (ip), vehicle: other); 93 % of control (dose: 100.0 mg/kg/injection, schedule: Q01DX001 (ip), vehicle: other); 91 % of control (dose: 200.0 mg/kg/injection, schedule: Q01DX001 (ip), vehicle: other); 96 % of control (dose: 400.0 mg/kg/injection, schedule: Q01DX001 (ip), vehicle: other).
For `CCOC(=O)c1c(-c2ccc([N+](=O)[O-])cc2)cn(-c2ccc(OC)cc2)c1C`, the T/C is, setting by setting: (dose: 100.0 mg/kg/injection, schedule: Q04DX002 (ip), vehicle: Klucel (hydroxypropylcellulose) (HPC)) 91 % of control; (dose: 200.0 mg/kg/injection, schedule: Q04DX002 (ip), vehicle: Klucel (hydroxypropylcellulose) (HPC)) 87 % of control; (dose: 400.0 mg/kg/injection, schedule: Q04DX002 (ip), vehicle: Klucel (hydroxypropylcellulose) (HPC)) 94 % of control.
In the case of `O=S(=O)(O)c1ccc(N=Nc2ccc(O)cc2)cc1`, the T/C reads like this: (dose: 25.0 mg/kg/injection, schedule: Q01DX009 (ip), vehicle: saline with Tween-80) 104 % of control; (dose: 50.0 mg/kg/injection, schedule: Q01DX009 (ip), vehicle: saline with Tween-80) 102 % of control; under setting [1], 88 % of control; under setting [7], 101 % of control; under setting [2], 92 % of control and 98 % of control; under setting [8], 107 % of control. The T/C runs as follows: under setting [3], 88 % of control; under setting [4], 92 % of control and 102 % of control; under setting [5], 90 % of control; under setting [6], 97 % of control.
Turning to `CN(CC#N)c1ncnc(Cl)c1[N+](=O)[O-]`, the T/C is 95 % of control (dose: 50.0 mg/kg/injection, schedule: Q01DX001 (ip), vehicle: carboxymethylcellulose (CMC)); 98 % of control (dose: 100.0 mg/kg/injection, schedule: Q01DX001 (ip), vehicle: carboxymethylcellulose (CMC)); 88 % of control (dose: 200.0 mg/kg/injection, schedule: Q01DX001 (ip), vehicle: carboxymethylcellulose (CMC)); 98 % of control (dose: 400.0 mg/kg/injection, schedule: Q01DX001 (ip), vehicle: carboxymethylcellulose (CMC)).
On to `Cc1cc(OC(=O)Nc2cc([N+](=O)[O-])ccc2F)cc(C)c1Cl`, for which the T/C was 89 % of control under setting [2], 91 % of control under setting [4] and 93 % of control under setting [6].
For the compound `COc1cc(Br)c(/C=C/C(=O)O)cc1OC`, the T/C under setting [8] is 95 % of control, the T/C under setting [9] is 93 % of control and the T/C under setting [10] was 92 % of control.
For the compound `CC(=O)OCC1CCC(NC(=O)N(CCF)N=O)CC1` (stereo unspecified), the T/C was 106 % of control (dose: 9.0 mg/kg/injection, schedule: Q01DX001 (ip), vehicle: saline with Tween-80); 110 % of control (dose: 13.0 mg/kg/injection, schedule: Q01DX001 (ip), vehicle: saline with Tween-80); 100 % of control (dose: 20.0 mg/kg/injection, schedule: Q01DX001 (ip), vehicle: saline with Tween-80); 353 % of control (dose: 45.0 mg/kg/injection, schedule: Q01DX001 (ip), vehicle: saline with Tween-80).
`O=[N+]([O-])c1ccc(O)c(N=Cc2ccccn2)c1`: the T/C by setting is: under setting [11], 90 % of control; under setting [12], 90 % of control; under setting [13], 100 % of control.
For the compound `Cc1ccc(-c2ccc(C)cc2)cc1`, the T/C reads like this: under setting [2], 98 % of control; under setting [4], 95 % of control; under setting [6], 98 % of control.
Take `O=C(O)COCc1ccccc1`: the T/C runs as follows: (dose: 100.0 mg/kg/injection, schedule: Q04DX003 (ip), vehicle: saline sonified) 97 % of control; (dose: 200.0 mg/kg/injection, schedule: Q04DX003 (ip), vehicle: saline sonified) 92 % of control; (dose: 400.0 mg/kg/injection, schedule: Q04DX003 (ip), vehicle: saline sonified) 92 % of control.
`c1ccc(COc2ccc3oc4ccccc4c3c2)cc1`: the T/C is 96 % of control under setting [1]; 94 % of control under setting [2]; 94 % of control under setting [3]; 96 % of control under setting [4]; 96 % of control under setting [5]; 91 % of control under setting [6].
As to `COC(=O)c1cc(C(C)=O)ccc1OC(=O)c1ccccc1`, the T/C under setting [7] was 98 % of control; the T/C under setting [8] is 88 % of control; the T/C under setting [14] was 94 % of control; the T/C under setting [9] was 90 % of control; the T/C (dose: 400.0 mg/kg/injection, schedule: Q01DX009 (ip), vehicle: saline with Tween-80) was 100 % of control; the T/C under setting [10] was 108 % of control.
On to `O=C1c2ccccc2C(=O)N1CNc1ccccn1`, for which the T/C (dose: 100.0 mg/kg/injection, schedule: Q04DX002 (ip), vehicle: saline with Tween-80) was 96 % of control; the T/C (dose: 200.0 mg/kg/injection, schedule: Q04DX002 (ip), vehicle: saline with Tween-80) was 93 % of control; the T/C (dose: 400.0 mg/kg/injection, schedule: Q04DX002 (ip), vehicle: saline with Tween-80) was 100 % of control.
Turning to `NCCCNCCO`, the T/C under setting [11] is 102 % of control, the T/C under setting [12] is 111 % of control and the T/C under setting [13] was 105 % of control.
On to `CCCCN1C(=O)C2CC=C3C=CN4C(C3C2C1=O)C1C(=O)N(CCCC)C(=O)C1C41CC(=O)N(CCCC)C1=O` (stereo unspecified), for which the T/C (dose: 12.5 mg/kg/injection, schedule: Q01DX009 (ip), vehicle: Klucel (hydroxypropylcellulose) (HPC)) was 101 % of control; the T/C (dose: 25.0 mg/kg/injection, schedule: Q01DX009 (ip), vehicle: Klucel (hydroxypropylcellulose) (HPC)) was 104 % of control; the T/C (dose: 50.0 mg/kg/injection, schedule: Q01DX009 (ip), vehicle: Klucel (hydroxypropylcellulose) (HPC)) was 91 % of control; the T/C under setting [1] is 86 % of control; the T/C under setting [2] was 89 % of control; the T/C under setting [3] was 91 % of control. Moreover, the T/C was 90 % of control under setting [4] and 92 % of control under setting [6].
For the compound `C=C(C)C(=O)O` (tested in a mixture with another compound), the T/C runs as follows: (dose: 100.0 mg/kg/injection, schedule: Q01DX Z (ip), vehicle: saline) 105 % of control; (dose: 200.0 mg/kg/injection, schedule: Q01DX Z (ip), vehicle: saline) 89 % of control.
Regarding `CC1(C)N=C(N)N=C(N)N1c1ccc(CNC(=O)Nc2cccc(S(=O)(=O)F)c2)cc1`, the T/C by setting is: (dose: 6.25 mg/kg/injection, schedule: Q01DX009 (ip), vehicle: saline) 116 % of control; (dose: 12.5 mg/kg/injection, schedule: Q01DX009 (ip), vehicle: saline) 119 % of control; (dose: 50.0 mg/kg/injection, schedule: Q01DX009 (ip), vehicle: saline) 154 % of control; (dose: 88.0 mg/kg/injection, schedule: Q04DX003 (ip), vehicle: saline) 113 % of control.
Regarding `COc1ccc2c(c1)-c1c(ccc(OC)c1O)CC(c1ccccc1)[N+](C)(C)CC2` (stereo unspecified), the T/C by setting is: (dose: 6.25 mg/kg/injection, schedule: Q01DX001 (ip), vehicle: saline) 96 % of control; (dose: 12.5 mg/kg/injection, schedule: Q01DX001 (ip), vehicle: saline) 96 % of control; (dose: 25.0 mg/kg/injection, schedule: Q01DX001 (ip), vehicle: saline) 107 % of control.
As to `NC(CSS(=O)(=O)O)=NCCCOCc1ccccc1`, the T/C was 103 % of control (dose: 12.5 mg/kg/injection, schedule: Q04DX002 (ip), vehicle: Klucel (hydroxypropylcellulose) (HPC)) and 93 % of control (dose: 25.0 mg/kg/injection, schedule: Q04DX002 (ip), vehicle: Klucel (hydroxypropylcellulose) (HPC)).
Take `Cc1cc2oc(C)[n+](Cc3ccccc3)c2cc1C`: the T/C is, setting by setting: under setting [7], 105 % of control and 86 % of control; under setting [8], 97 % of control; under setting [14], 96 % of control and 110 % of control; under setting [9], 95 % of control; under setting [10], 95 % of control.
Turning to `CCCCOB(OCCCC)c1cccc(B(OCCCC)OCCCC)c1`, the T/C was 89 % of control under setting [11], 101 % of control under setting [12] and 117 % of control under setting [13].
